Reference: patent publication US4461891A, “2-β-D-Ribofuranosylthiazole-4-carboxamidine compounds” (Brigham Young University, priority 1983, dated 1984)

Experiments:
[1] = tested on: T-cells; assay: T-cell test: selective cytotoxicity in the presence of 2'-deoxyguanosine; format: cell-based
[2] = tested on: purine nucleoside phosphorylase; assay: purine nucleoside phosphorylase (PNP-4) test: formation of [14C]-hypoxanthine from [14C]-inosine; format: biochemical; settings: human erythrocytes as the source of enzyme; [14C]-inosine substrate
Excerpt: In particular, the compound, in a standard protocol, patterned after that reported in Biomedicine, 33, 39-41(1980), has been shown typically to inhibit the formation of [^14 C]-hypoxanthine from [^14 C]-inosine using human erythrocytes as the source of enzyme. […] Since T-cells play a central role in immune response, use of the compounds of the invention is contemplated for the immunoregulation of autoimmune disease Such as rheumatoid arthritis, systemic lupus erythematosus, and inflammatory bowel disease. The present invention in another preferred aspect therefore relates to compositions containing at least one compound of the invention in treating disease such as autoimmune disease characterized by abnormal immune response in warm blooded animals. According to this aspect of the invention, the properties of 2-β-D-ribofuranosylthiazole-4-carboxamidines are utilized by administering to a warm blooded animal an effective amount of a pharmaceutical composition containing as the active ingredient at least about 0.1 percent by weight, based on the total weight of the composition of at least one such compound of the invention.

[3] = tested on: MOLT-4; assay: T-cell test with 2'-deoxyguanosine, MOLT-4; format: cell-based; settings: with 2'-deoxyguanosine (10 micromoles), read-out: ED50 (toxic for T-lymphoblasts)
[4] = tested on: HSB; assay: T-cell test with 2'-deoxyguanosine, HSB; format: cell-based; settings: with 2'-deoxyguanosine (10 micromoles), read-out: ED50 (toxic for T-lymphoblasts)
[5] = tested on: CEM T-lymphoblasts; assay: T-cell test with 2'-deoxyguanosine, CEM; format: cell-based; settings: with 2'-deoxyguanosine (10 micromoles), read-out: ED50 (toxic for T-lymphoblasts)

- concentration at which total inhibition was achieved [2]: less than 300 micromoles
Compound: Cl.N=C(N)c1csc([C@@H]2O[C@H](CO)[C@@H](O)[C@H]2O)n1 [Example 1, 2-β-D-Ribofuranosylthiazole-4-Carboxamidine, hydrochloride]
- selective cytotoxicity for T-cells [1]: selectively cytotoxic for T-cells
- IC50 [3]: ~27 µM
- IC50 [4]: ~7 µM
- IC50 [5]: ~77 µM
